Usually EC50 stands for the concentration at which the effect is half-maximal. For orientation: inhibition means the relative decrease from the control value, in per cent.

Data on three compounds can be found in patent publication US20240043400A1, “Octahydroisoquinolinyl Derivatives” (UCB Biopharma SRL, priority 2020, published 2024).

The target in one data set is T1, dopamine D1 receptor (Homo sapiens, UniProt P21728).
T1 construct: host or cells: LMtk (Ltk-) mouse fibroblast cells, kept under Geneticin
Description: cAMP HTRF potentiation assay (in the presence of dopamine). It is filed as cell-based. As to conditions: potentiation of cAMP with [EC20] of dopamine (1.1 nM); LMtk (Ltk−) mouse fibroblast cells expressing the dopamine D1 receptor. Here is the method:
The potentiation assay measures the ability of compounds to increase the levels of cAMP produced by a low-threshold concentration of dopamine. The concentration of dopamine used ([EC20]) is designed to produce 20% stimulation compared to the maximal response (100%) seen with increasing the concentration of dopamine. To measure this potentiation we incubate increasing concentrations of the compound with the [EC20] of dopamine and measure the potentiation as increases in cAMP production. The pEC50 of a compound is the −log 10 of the concentration of the compound which produces 50% of the potentiation of the cAMP levels and the Erel is the relative efficacy, defined as the maximal % potentiation produced by the compound compared to the maximal response produced by increasing concentrations of dopamine (Erel of 1=dopamine maximum response).
Cells were cultured at 37° C. in a humidified atmosphere of 5% CO2. Cells were grown in DMEM-F12+GlutaMAX™-1 medium (GIBCO®, Invitrogen, Merelbeke, Belgium) containing 10% fetal bovine serum (BioWhittaker®, Lonza, Verviers, Belgium), 400 μg/mL Geneticin (GIBCO®), 100 IU/mL Penicillin and 100 IU/mL Streptomycin (Pen-Strep solution, BioWhittaker®).
The measurement of changes in intracellular cyclic adenosinemonophopshpate (cAMP) was determined using the HTRF cAMP dynamic assay kit from CisBio (Codolet, France). Using homogenous time-resolved fluoresence technology, the assay is based on competition between native cAMP produced by cells and cAMP labelled with the dye d2. The tracer binding is determined by an anti-cAMP antibody labeled with cryptate. The effects of the compound alone (agonism) was determined by performing the assay in the absence of dopamine, whilst the effect of the compound as a positive allosteric modulator (PAM) was determined in the presence of an EC20 concentration of dopamine. Cells (20,000 per well) are incubated in 384 plates for 1 h at rt in a final volume of 20 μLHBSS (Lonza, with calcium, magnesium and HEPES buffer 20 mM, pH 7.4) containing: isobutyl methylxanthine (Sigma, 0.1 mM final), varying concentrations of test compound (typically 10^−9.5 M to 10^−4.5 M) in the presence and absence of dopamine (1.1 nM final). The reaction is then terminated and the cells lysed by adding the d2 detection reagent in lysis buffer (10 μL) and the cryptate reagent in lysis buffer (10 μL) according to manufacturer's instructions. This is then incubated for a further 60 min at rt and changes in HTRF fluorescent emission ratio determined according to manufacturer's instructions using an Envision plate reader (Perkin Elmer, Zaventem, Belgium) with laser excitation. All incubations were performed in duplicate and results were compared to a concentration-effect curve to dopamine. (10^−11 M to 10^−6 M).
Data was analyzed using Excel and PRISM (GraphPad Software) to obtain pEC50 and Erel using the 4-parameter logistic equation (DeLean et al, 1978) where Erel is the fitted maximal response of the test compound minus basal expressed as a percentage relative to that obtained with dopamine which was defined as 100%.
In general terms: TR-FRET usually uses a lanthanide donor and a delayed reading to cut background.

The target in data set [1] is T2, human GABAA receptor α1β2 and γ2 subunits (Homo sapiens, UniProt P14867+P18507+P47870).
T2 construct: expressed in transfected cells
The data set is described as follows: Automated patch clamp studies on the GABAA receptor cells. The settings on record: CHO-K1, 10 μM compound, 15 μM GABA, Table B. It is filed as cell-based. On the procedure:
CHO-K1 cells stably expressing human GABAA receptor α1β2 and γ2 subunits were used. The cells were harvested using trypsin and maintained in serum-free medium at room temperature. The cells were washed and re-suspended in extracellular solution before testing.
Experiments on human GABAA (α1β2γ2) channels were conducted using an automated patch clamp assay (lonFlux™ HT). The external solution for recording GABAA currents was composed of sodium chloride 137 mM, potassium chloride 4 mM, calcium chloride 1.8 mM, magnesium chloride 1 mM, HEPES 10 mM, and glucose 10 mM. Both external and internal solutions were titrated with NaOH or KOH to obtain a pH of 7.35 and 7.3, respectively. The internal pipette solution contained potassium fluoride 70 mM, potassium chloride 60 mM, sodium chloride 70 mM, HEPES 5 mM, EGTA 5 mM, and Magnesium ATP 4 mM. The final concentration of vehicle used to dilute compounds was 0.33% DMSO in each well. Bicuculline (0.032 to 100 μM) was used as positive control inhibitor. GABA (15 μM) was used as agonist. All recordings were obtained from a holding potential of −60 mV.
The compound addition sequence was the following: one addition of the EC80 concentration of GABA was added to establish baseline response. Each concentration of compound was applied for 30 seconds followed by the addition of 15 μM GABA in the presence of the compound for 2 seconds. The process was repeated with the next ascending concentration of compound. Peak inward currents in response to the GABA additions in the presence of a single concentration of compound were measured. All compound data have been normalized to the baseline peak current induced by addition of 15 μM GABA for 2 seconds.
For orientation: The patch-clamp technique gives a direct electrical read-out from membranes.

In the next data set the target is T3, CYP3A4 (Homo sapiens, UniProt P08684).
T3 construct: cryopreserved human microsomes (pooled donors); from tissue
Description: In vitro assessment of CYP3A4 inhibition potential using cryopreserved human microsomes. Type of data set: in vitro ADME. As to conditions: human, cryopreserved human microsomes (pooled donors), probe midazolam 2.5 μM (1-hydroxymidazolam formation), 20 μM compound, human microsomes 0.25 mg/ml, Table C. Here is the method: The objective of the human microsome assay is to characterize the inhibition potential of Compound of formula (I) by measuring the CYP3A4 activities after its co-incubation with midazolam, a specific CYP3A4 substrate.
To this aim, cryopreserved human microsomes (pooled donors) are divided on a 48 well collagen coated plate so that the final concentration is 0.25 mg/ml. The UCB compound is then added in the wells at 20 μM concentration in duplicate. After 30 min incubation, midazolam is added at 2.5 μM concentration. After 15 min, an aliquot is removed and placed into an equal volume of methanol containing internal standard. The samples are centrifuged at 2500 rpm at 4° C. for 20 min. An aliquot of supernatant is diluted with deionised water and levels of 1-hydroxymidazolam is quantified using generic LC MS/MS methods.
The concentrations are compared to those obtained after midazolam incubation at the same concentration but without UCB compound pre-incubation. The results are expressed as % of inhibition.

T3 sequence (P08684 whole entry): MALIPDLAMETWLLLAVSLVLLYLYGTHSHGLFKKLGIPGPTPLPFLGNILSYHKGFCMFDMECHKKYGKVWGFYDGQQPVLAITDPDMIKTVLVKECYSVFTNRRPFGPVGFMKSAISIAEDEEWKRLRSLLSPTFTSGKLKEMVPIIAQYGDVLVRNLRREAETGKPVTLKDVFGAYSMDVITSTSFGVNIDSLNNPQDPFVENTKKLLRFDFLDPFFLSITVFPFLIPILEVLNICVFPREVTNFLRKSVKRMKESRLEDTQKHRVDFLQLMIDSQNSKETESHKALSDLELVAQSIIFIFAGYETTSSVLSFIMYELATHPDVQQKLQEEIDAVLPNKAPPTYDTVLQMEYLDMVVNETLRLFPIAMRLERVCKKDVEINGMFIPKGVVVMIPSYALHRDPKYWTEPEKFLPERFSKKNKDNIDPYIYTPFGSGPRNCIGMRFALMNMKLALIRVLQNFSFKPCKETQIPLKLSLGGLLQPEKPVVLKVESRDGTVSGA
T1 sequence (P21728 whole entry): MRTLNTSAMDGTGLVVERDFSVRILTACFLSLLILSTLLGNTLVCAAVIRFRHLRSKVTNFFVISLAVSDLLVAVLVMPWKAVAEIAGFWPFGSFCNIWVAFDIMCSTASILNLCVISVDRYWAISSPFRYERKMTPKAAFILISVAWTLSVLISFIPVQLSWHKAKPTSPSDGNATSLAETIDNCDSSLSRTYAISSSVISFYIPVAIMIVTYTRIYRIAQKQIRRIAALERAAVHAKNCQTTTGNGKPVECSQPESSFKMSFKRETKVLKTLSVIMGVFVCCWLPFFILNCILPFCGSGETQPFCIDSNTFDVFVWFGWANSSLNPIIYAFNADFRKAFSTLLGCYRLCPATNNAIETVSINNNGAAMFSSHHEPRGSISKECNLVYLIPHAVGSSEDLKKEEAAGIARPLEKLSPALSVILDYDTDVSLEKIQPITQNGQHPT
T2 sequence (P14867 28-456): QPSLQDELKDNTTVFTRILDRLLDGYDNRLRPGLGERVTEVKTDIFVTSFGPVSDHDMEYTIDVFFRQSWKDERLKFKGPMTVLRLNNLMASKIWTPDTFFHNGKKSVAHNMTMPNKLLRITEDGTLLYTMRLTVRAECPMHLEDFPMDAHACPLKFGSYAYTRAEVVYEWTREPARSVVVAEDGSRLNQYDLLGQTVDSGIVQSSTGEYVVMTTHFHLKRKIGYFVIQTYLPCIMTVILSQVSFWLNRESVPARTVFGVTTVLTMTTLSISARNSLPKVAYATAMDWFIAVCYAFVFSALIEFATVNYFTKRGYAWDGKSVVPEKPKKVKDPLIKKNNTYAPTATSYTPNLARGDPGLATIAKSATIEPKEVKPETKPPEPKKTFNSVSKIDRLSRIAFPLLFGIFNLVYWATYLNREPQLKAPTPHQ
T2 sequence (P47870 25-512 limits assumed): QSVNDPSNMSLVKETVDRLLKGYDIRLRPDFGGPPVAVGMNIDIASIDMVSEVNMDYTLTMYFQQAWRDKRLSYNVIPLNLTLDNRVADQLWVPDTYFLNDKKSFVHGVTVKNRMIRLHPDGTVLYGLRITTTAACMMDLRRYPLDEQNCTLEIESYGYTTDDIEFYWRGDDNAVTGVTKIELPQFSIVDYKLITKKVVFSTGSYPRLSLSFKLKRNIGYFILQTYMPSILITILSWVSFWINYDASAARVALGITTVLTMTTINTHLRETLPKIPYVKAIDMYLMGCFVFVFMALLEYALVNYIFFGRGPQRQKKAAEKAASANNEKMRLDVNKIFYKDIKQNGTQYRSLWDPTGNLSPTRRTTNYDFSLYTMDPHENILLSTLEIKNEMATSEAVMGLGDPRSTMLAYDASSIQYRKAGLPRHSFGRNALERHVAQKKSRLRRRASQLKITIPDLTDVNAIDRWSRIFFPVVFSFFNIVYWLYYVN
T2 sequence (P18507 40-475): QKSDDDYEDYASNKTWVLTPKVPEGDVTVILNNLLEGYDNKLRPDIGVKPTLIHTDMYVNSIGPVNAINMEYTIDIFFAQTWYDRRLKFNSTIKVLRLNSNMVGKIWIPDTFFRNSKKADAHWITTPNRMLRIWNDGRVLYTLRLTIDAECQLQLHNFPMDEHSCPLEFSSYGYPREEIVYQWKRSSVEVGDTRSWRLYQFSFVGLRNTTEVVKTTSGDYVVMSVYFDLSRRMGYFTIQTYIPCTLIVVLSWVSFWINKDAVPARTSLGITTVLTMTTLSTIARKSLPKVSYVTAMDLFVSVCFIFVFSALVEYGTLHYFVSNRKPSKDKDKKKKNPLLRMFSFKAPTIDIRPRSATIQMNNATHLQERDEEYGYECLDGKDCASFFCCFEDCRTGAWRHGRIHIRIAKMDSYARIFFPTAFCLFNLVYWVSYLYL

Turning to `C[C@H]1[C@H]2CCC[C@@H]([C@H](O)C(F)(F)F)[C@@H]2CCN1C(=O)Cc1c(Cl)cnc(CO)c1Cl` [Example 12, 1-[(1S,4aR,5R,8aS)-1-methyl-5-[(1 S)-2,2,2-trifluoro-1-hydroxy-ethyl]-3,4,4a,5,6,7,8,8a-octahydro-1H-isoquinolin-2-yl]-2-[3,5-dichloro-2-(hydroxymethyl)-4-pyridyl]ethanone], at dopamine D1 receptor, the EC50 is 15.8 nM. In addition, the inhibition at 10 µM in data set [1] was 9.6%. Also, the inhibition at 15 min, 20 μM against CYP3A4 lay within 20 to 40%.
Regarding `C[C@H]1[C@H]2CCC[C@@H]([C@H](O)C(F)(F)F)[C@@H]2CCN1C(=O)Cc1c(Cl)cnc(C(C)(C)O)c1Cl` [Example 13, 1-[(1S,4aR,5R,8aS)-1-methyl-5-[(1S)-2,2,2-trifluoro-1-hydroxy-ethyl]-3,4,4a,5,6,7,8,8a-octahydro-1H-isoquinolin-2-yl]-2-[3,5-dichloro-2-(1-hydroxy-1-methyl-ethyl)-4-pyridyl]ethanone], the EC50 at dopamine D1 receptor was 50.1 nM. The inhibition at 10 µM in data set [1] is -8%. In addition, the inhibition at 15 min, 20 μM against CYP3A4 lay in the range of 20 to 40%.
Regarding `C[C@H]1[C@H]2CCC[C@@H]([C@H](O)C(F)(F)F)[C@@H]2CCN1C(=O)Cc1c(Cl)cc(F)c2[nH]nc(Cl)c12` [Example 14, 1-[(1 S,4aR,5R,8aS)-1-methyl-5-[(1 S)-2,2,2-trifluoro-1-hydroxy-ethyl]-3,4,4a,5,6,7,8,8a-octahydro-1H-isoquinolin-2-yl]-2-(3,5-dichloro-7-fluoro-1H-indazol-4-yl)ethanone], the EC50 on dopamine D1 receptor is 31.6 nM. In data set [1], the inhibition at 10 µM was -8%. Moreover, the inhibition at 15 min, 20 μM against CYP3A4 was in the range of 40 to 60%.
